Literature values as cited in article PMC5117885 (Drug Design, Development and Therapy, 2016).

Assays:
[1] = phase 3 ACCELERATE trial
[2] = not given; remark: listed apart in the source

SMILES: CCC(CC)CC1(C(=O)Nc2ccccc2SC(=O)C(C)C)CCCCC1 [Dalcetrapib]
- Effect on HDL-C levels: increased HDL-C levels
- Reduction of cardiovascular events compared to placebo group: did not demonstrate a significant reduction of cardiovascular events

SMILES: Cc1cc(C)c2c(c1)[C@@H](N(Cc1cc(C(F)(F)F)cc(C(F)(F)F)c1)c1nnn(C)n1)CCCN2C[C@H]1CC[C@H](C(=O)O)CC1 [Evacetrapib]
- Efficacy [1]: did not improve the efficacy

SMILES: CCOC(=O)N1c2ccc(C(F)(F)F)cc2[C@@H](N(Cc2cc(C(F)(F)F)cc(C(F)(F)F)c2)C(=O)OC)C[C@H]1CC [Torcetrapib]
- Effect on blood pressure and aldosterone [2]: Elevation of BP caused by torcetrapib was associated with a substantial increase of aldosterone
- Effect on HDL-C and LDL-C ([2]; ILLUMINATE trial): HDL-C increase and LDL-C decrease
- Risk of death and cardiac events ([2]; ILLUMINATE trial, patients receiving torcetrapib): significantly increased risk of death and cardiac events
